# From BigSolDB 2.1
smiles,measurement,setting,value
FC(F)(F)c1cccnc1Cl,solubility (mole fraction),"in dichloromethane, 273.15 K",0.281
same,solubility (mole fraction),"in dichloromethane, 278.15 K",0.365
same,solubility (mole fraction),"in dichloromethane, 283.15 K",0.41
same,solubility (mole fraction),"in dichloromethane, 288.15 K",0.469
same,solubility (mole fraction),"in dichloromethane, 293.15 K",0.551
same,solubility (mole fraction),"in dichloromethane, 298.15 K",0.625
same,solubility (mole fraction),"in dichloromethane, 303.15 K",0.741
same,solubility (mole fraction),"in ethanol, 273.15 K",0.137
same,solubility (mole fraction),"in ethanol, 278.15 K",0.182
same,solubility (mole fraction),"in ethanol, 283.15 K",0.253
same,solubility (mole fraction),"in ethanol, 288.15 K",0.355
same,solubility (mole fraction),"in ethanol, 293.15 K",0.475
same,solubility (mole fraction),"in ethanol, 298.15 K",0.635
same,solubility (mole fraction),"in ethanol, 303.15 K",0.875
same,solubility (mole fraction),"in n-heptane, 273.15 K",0.037
same,solubility (mole fraction),"in n-heptane, 278.15 K",0.0552
same,solubility (mole fraction),"in n-heptane, 283.15 K",0.0887
same,solubility (mole fraction),"in n-heptane, 288.15 K",0.14
same,solubility (mole fraction),"in n-heptane, 293.15 K",0.222
same,solubility (mole fraction),"in n-heptane, 298.15 K",0.36
same,solubility (mole fraction),"in n-heptane, 303.15 K",0.556
same,solubility (mole fraction),"in n-hexane, 273.15 K",0.046
same,solubility (mole fraction),"in n-hexane, 278.15 K",0.0733
same,solubility (mole fraction),"in n-hexane, 283.15 K",0.118
same,solubility (mole fraction),"in n-hexane, 288.15 K",0.199
same,solubility (mole fraction),"in n-hexane, 293.15 K",0.336
same,solubility (mole fraction),"in n-hexane, 298.15 K",0.488
same,solubility (mole fraction),"in n-hexane, 303.15 K",0.762
same,solubility (mole fraction),"in n-propanol, 273.15 K",0.0727
same,solubility (mole fraction),"in n-propanol, 278.15 K",0.0992
same,solubility (mole fraction),"in n-propanol, 283.15 K",0.132
same,solubility (mole fraction),"in n-propanol, 288.15 K",0.183
same,solubility (mole fraction),"in n-propanol, 293.15 K",0.253
same,solubility (mole fraction),"in n-propanol, 298.15 K",0.355
same,solubility (mole fraction),"in n-propanol, 303.15 K",0.492
same,solubility (mole fraction),"in toluene, 273.15 K",0.35
same,solubility (mole fraction),"in toluene, 278.15 K",0.413
same,solubility (mole fraction),"in toluene, 283.15 K",0.491
same,solubility (mole fraction),"in toluene, 288.15 K",0.569
same,solubility (mole fraction),"in toluene, 293.15 K",0.653
same,solubility (mole fraction),"in toluene, 298.15 K",0.724
same,solubility (mole fraction),"in toluene, 303.15 K",0.862
